The values below come from patent US9458181B2, “Cathepsin cysteine protease inhibitors” (Merck Sharp & Dohme Corp., priority 2013, dated 2016).

Molecules are shown by their SMILES. Some results are limits rather than exact numbers.

One test concerns the target human cathepsin K (UniProt P43236). The test is described as follows: Cathepsin K Assay (hrbCat K). Type of test: biochemical. To be noted: human cathepsin K 0.4 nM, Z-Leu-Arg-AMC 8 μM, pH 5.5, 15 min preincubation; read-out: hrbCat K IP. The procedure:
Cathepsin K Assay (hrbCat K)
(§1) Serial dilutions (⅓) from 500 μM down to 0.025 μM of test compounds were prepared in dimethyl sulfoxide (DMSO). Then 0.5 μL of DMSO from each dilution were added to 18.75 μL of assay buffer (MES, 50 mM (pH 5.5); EDTA, 2.5 mM; DTT, 2.5 mM and 10% DMSO) containing human cathepsin K (0.4 nM) in assay buffer solution. The assay solutions were mixed for 5-10 seconds on a shaker plate and incubated for 15 minutes at room temperature. Z-Leu-Arg-AMC (8 μM) in 6.25 μL of assay buffer was added to the assay solutions. Hydrolysis of the coumarin leaving group (AMC) was followed by spectrofluorometry (Exλ=360 nm; Emλ=460 nm) for 30 minutes. Percent of inhibition were calculated by fitting experimental values to standard mathematical model for dose response curve.

A further test addresses T1, human cathepsin F (Homo sapiens, UniProt Q9UBX1).
T1 sequence (Q9UBX1 271-484): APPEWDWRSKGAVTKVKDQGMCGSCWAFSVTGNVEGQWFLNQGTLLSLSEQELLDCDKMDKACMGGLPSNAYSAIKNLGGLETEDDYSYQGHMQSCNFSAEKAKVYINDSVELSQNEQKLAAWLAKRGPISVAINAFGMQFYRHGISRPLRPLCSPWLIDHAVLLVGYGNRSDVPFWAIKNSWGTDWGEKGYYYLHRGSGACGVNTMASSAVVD
The test can be described thus: Cathepsin F assay (hCat F). Type of test: biochemical. To be noted: human cathepsin F 10 nM, Z-Phe-Arg-AMC 8 μM, pH 5.5, 15 min preincubation; read-out: hCat F IP. The procedure: Cathepsin F assay (hCat F)
as §1, with “F (10” for “K (0.4”, “Z-Phe-Arg-AMC” for “Z-Leu-Arg-AMC”, “(Exp, =360” for “(Exλ=360”, “EmX=460” for “Emλ=460”, “20” for “30”

As for `N#CC1(NC(=O)[C@@H]2CC(F)(F)CC[C@H]2c2sc(CC(F)(F)F)nc2-c2ccc(N3CCS(=O)(=O)CC3)cc2)CC1` [Example 57, (1R,2R)-N-(1-cyanocyclopropyl)-2-(4-(4-(1,1-dioxidothiomorpholino)phenyl)-2-(2,2,2-trifluoroethyl)thiazol-5-yl)-5,5-difluorocyclohexane-carboxamide], the IC50 on human cathepsin K turned out to be 0.58 nM; at human cathepsin F, 93 nM.
The matching figures for `N#CC(CC(F)(F)F)NC(=O)[C@@H]1CC(F)(F)CC[C@H]1c1oc(C(F)(F)C(F)(F)F)nc1-c1ccc(C(=O)N2CCOCC2)cc1` (single isomer, unassigned) [Example 143, (1R,2R)-N-((S or R)-1-cyano-3,3,3-trifluoropropyl)-5,5-difluoro-2-(4-(4-(morpholine-4-carbonyl)phenyl)-2-(perfluoroethyl)oxazol-5-yl)cyclohexanecarboxamide]: 0.54 nM and 14 nM.
On to `N#CC1(NC(=O)[C@@H]2CCCC[C@H]2c2oc(-c3cncc(Cl)c3)nc2-c2ccc(N3CCS(=O)(=O)CC3)cc2)CC1` [Example 95, (1R,2R)-2-(2-(5-chloropyridin-3-yl)-4-(4-(1,1-dioxidothiomorpholino)phenyl)oxazol-5-yl)-N-(1-cyanocyclopropyl) cyclohexanecarboxamide], for which the IC50 at human cathepsin K worked out at 1.17 nM; on human cathepsin F it was 775 nM.
The matching figures for `N#CC1(NC(=O)[C@@H]2CCCC[C@H]2c2oc(-c3ccc(C(F)(F)F)cc3)nc2-c2ccc(N3CCS(=O)(=O)CC3)cc2)CC1` [Example 65, (1R,2R)-N-(1-cyanocyclopropyl)-2-(4-(4-(1,1-dioxidothiomorpholino)phenyl)-2-(4-(trifluoromethyl)phenyl)oxazol-5-yl)cyclohexanecarboxamide]: 1.3 nM and 825 nM.
For the compound `Cc1nc(-c2ccc(N3CCS(=O)(=O)CC3)cc2)c([C@@H]2CCC(F)(F)C[C@H]2C(=O)NC2(C#N)CC2)o1` [Example 18, (1R,2R)-N-(1-cyanocyclopropyl)-2-(4-(4-(1,1-dioxidothiomorpholino)phenyl)-2-methyloxazol-5-yl)-5,5-difluorocyclohexane-carboxamide], the IC50 at human cathepsin K came to 0.48 nM; on human cathepsin F, 178 nM.
The matching figures for `CC(C)C(C#N)NC(=O)[C@@H]1CCCC[C@H]1c1oc(-c2ccc(F)cc2)nc1-c1ccc(N2CCS(=O)(=O)CC2)cc1` (single isomer, unassigned) [Example 123, (1R,2R)-N-((S or R)-1-cyano-2-methylpropyl)-2-(4-(4-(1,1-dioxidothiomorpholino)phenyl)-2-(4-fluorophenyl)oxazol-5-yl)cyclohexanecarboxamide]: 2.13 nM and 472 nM.
The matching figures for `N#CC1(NC(=O)[C@@H]2CCCC[C@H]2c2oc(-c3ccc(F)cc3)nc2-c2ccc(N3CCS(=O)(=O)CC3)c(Br)c2)CC1` [Example 102, (1R,2R)-2-(4-(3-bromo-4-(1,1-dioxidothiomorpholino)phenyl)-2-(4-fluorophenyl)oxazol-5-yl)-N-(1-cyanocyclopropyl) cyclohexanecarboxamide]: 54.5 nM and 416 nM.
The matching figures for `CC1(c2nc(-c3ccc(N4CCS(=O)(=O)CC4)cc3)c([C@@H]3CCCC[C@H]3C(=O)NC3(C#N)CC3)o2)CCC(F)(F)CC1` [Example 52, (1R,2R)-N-(1-cyanocyclopropyl)-2-(2-(4,4-difluoro-1-methylcyclohexyl)-4-(4-(1,1-dioxidothiomorpholino)phenyl)oxazol-5-yl)cyclohexanecarboxamide]: 2.51 nM and 820 nM.
In the case of `Cc1ncc(-c2nc(-c3ccc(N4CCS(=O)(=O)CC4)cc3)c([C@@H]3CCCC[C@H]3C(=O)NC3(C#N)CC3)o2)cn1` [Example 103, (1R,2R)-N-(1-cyanocyclopropyl)-2-(4-(4-(1,1-dioxidothiomorpholino)phenyl)-2-(2-methylpyrimidin-5-yl)oxazol-5-yl)cyclohexanecarboxamide], the IC50 came to 1.35 nM at human cathepsin K and 1840 nM on human cathepsin F.
Take `Cc1nc(-c2ccc(N3CCS(=O)(=O)CC3)cc2)c([C@@H]2CCCC[C@H]2C(=O)NC2(C#N)CC2)o1` [Example 14, (1R,2R)-N-(1-cyanocyclopropyl)-2-(4-(4-(1,1-dioxidothiomorpholino)phenyl)-2-methyloxazol-5-yl)cyclohexanecarboxamide]: the IC50 at human cathepsin K was found to be 1.08 nM; at human cathepsin F it was 1330 nM.
The matching figures for `CC(C)C(C#N)NC(=O)[C@@H]1CCCC[C@H]1c1oc(-c2ccc(F)cc2)nc1-c1ccc(N2CCS(=O)(=O)CC2)cc1` (single isomer, unassigned) [Example 124, (1R,2R)-N-((R or S)-1-cyano-2-methylpropyl)-2-(4-(4-(1,1-dioxidothiomorpholino)phenyl)-2-(4-fluorophenyl)oxazol-5-yl)cyclohexanecarboxamide]: 1080 nM and at least 10000 nM.
For `Cc1nc(-c2ccc(C(=O)NC3(C#N)CC3)cc2)c([C@@H]2CCCC[C@H]2C(=O)NC2(C#N)CC2)o1` [Example 21, N-(1-cyanocyclopropyl)-4-(5-((1R,2R)-2-((1-cyanocyclopropyl)carbamoyl)cyclohexyl)-2-methyloxazol-4-yl)benzamide], the IC50 on human cathepsin K is 61.9 nM; on human cathepsin F, at least 10000 nM.
Consider `N#CC1(NC(=O)[C@@H]2CCCC[C@H]2c2oc(-c3ccc(F)cc3Cl)nc2-c2ccc(N3CCS(=O)(=O)CC3)cc2)CC1` [Example 37, (1R,2R)-2-(2-(2-chloro-4-fluorophenyl)-4-(4-(1,1-dioxidothiomorpholino)phenyl)oxazol-5-yl)-N-(1-cyanocyclopropyl) cyclohexanecarboxamide], for which the IC50 on human cathepsin K is 0.72 nM; on human cathepsin F it was 353 nM.
The matching figures for `N#CC1(NC(=O)[C@@H]2CCCC[C@H]2c2oc(-c3ccccc3Cl)nc2-c2ccc(N3CCS(=O)(=O)CC3)cc2)CC1` [Example 75, (1R,2R)-2-(2-(2-chlorophenyl)-4-(4-(1,1-dioxidothiomorpholino)phenyl)oxazol-5-yl)-N-(1-cyanocyclopropyl) cyclohexanecarboxamide]: 2.06 nM and 865 nM.
With `N#CC1(NC(=O)[C@@H]2CCC(F)(F)C[C@H]2c2oc(-c3ccc(F)cc3)nc2-c2ccc(N3CCS(=O)(=O)CC3)cc2)CC1` [Example 139, (1R,2R)-N-(1-cyanocyclopropyl)-2-(4-(4-(1,1-dioxidothiomorpholino)phenyl)-2-(4-fluorophenyl)oxazol-5-yl)-4,4-difluorocyclohexane-carboxamide], the IC50 was 3.84 nM at human cathepsin K and 2420 nM on human cathepsin F.
The matching figures for `N#CC1(NC(=O)[C@@H]2CCCC[C@H]2c2oc(-c3ncccc3F)nc2-c2ccc(N3CCS(=O)(=O)CC3)cc2)CC1` [Example 84, (1R,2R)-N-(1-cyanocyclopropyl)-2-(4-(4-(1,1-dioxidothiomorpholino)phenyl)-2-(3-fluoropyridin-2-yl)oxazol-5-yl)cyclohexanecarboxamide]: 2.92 nM and 4230 nM.
The matching figures for `N#CC1(NC(=O)[C@@H]2CCCC[C@H]2c2oc(-c3ccc(F)cc3)nc2-c2ccc(N3CC4CC3CS4(=O)=O)cc2)CC1` (mixture of isomers) [Example 87, (1R,2R)-N-(1-cyanocyclopropyl)-2-(4-(4-((1R,4R and 1S,4S)-2,2-dioxido-2-thia-5-azabicyclo[2.2.1]heptan-5-yl)phenyl)-2-(4-fluorophenyl)oxazol-5-yl)cyclohexanecarboxamide]: 4.09 nM and 1220 nM.
The matching figures for `CCC(C#N)NC(=O)[C@@H]1CCCC[C@H]1c1oc(-c2ccc(F)cc2)nc1-c1ccc(N2CCS(=O)(=O)CC2)cc1` (single isomer, unassigned) [Example 125, (1R,2R)-N-((S or R)-1-cyanopropyl)-2-(4-(4-(1,1-dioxidothiomorpholino)phenyl)-2-(4-fluorophenyl)oxazol-5-yl)cyclohexanecarboxamide]: 0.69 nM and 104 nM.
On to `N#CC1(NC(=O)[C@@H]2CCCC[C@H]2c2oc(-c3ccccc3C(F)(F)F)nc2-c2ccc(N3CCS(=O)(=O)CC3)cc2)CC1` [Example 69, (1R,2R)-N-(1-cyanocyclopropyl)-2-(4-(4-(1,1-dioxidothiomorpholino)phenyl)-2-(2-(trifluoromethyl)phenyl)oxazol-5-yl)cyclohexanecarboxamide], for which the values for the IC50 on human cathepsin K and on human cathepsin F were 2.94 nM and 827 nM, respectively.
